Source: US9789098B2, “Nootropic compositions for improving memory performance” (Pharnext, priority 2012, dated 2017)

What was measured:
[1] = clinical; settings: human, in vivo, po
Source text: Pharmacodynamics of baclofen and acamprosate have been established in the frame of clinical trial.

[2] = system: 11 month-old C57B1/6 mice; assay: % of alternation in T-maze test, healthy mice (short term memory); format: in vivo; settings: administered once 2 hours before the test, very low doses (mix doses 4 and 5), FIG. 2
Method: 11 month-old C57B1/6 mice are used. They are group-housed (5-10 mice per cage) and maintained in a room with controlled temperature (21-22° C.) and a reversed light-dark cycle (12 h/12 h; lights on: 17:30-05:30; lights off: 05:30-17:30) with food and water available ad libitum.
Drugs are solubilized in water and freshly prepared just before each gavage or ip administration and are kept under agitation.
Doses of drugs of the invention are exemplified in table 4. Concerning acamprosate calcium, the indicated doses refer to the doses of the salt of molecule.
Between day 0 and day 7, drug combinations or the vehicle solution were administered twice daily (at 8:00 am and 6:00 pm). One animal group receives donepezil (reference compound 0.3 mg/kg) at 8:00 am and the vehicle at 6:00 pm.
On day 8, all animals were tested for the % of alternation performance in the T-maze test, 2 hours after the administration of drugs combination or the vehicle solution.
The eve of the test, drug combinations or the vehicle solution were administered at 8:00 am and 6:00 pm. […]
The effect of the administration of combinations on short term memory was assessed for different durations of treatment (7 days, 1 day, 2 hours before the test). […]
The percent spontaneous alternation was calculated as the number of spontaneous alternations divided by the number of free-choice trials. […]

SMILES | Tmax [1] [h] | improvement of learning and working memory performances vs vehicle [2]
NCC(CC(=O)O)c1ccc(Cl)cc1 (racemic) [baclofen, Baclofen] | 1.5 | no significant improvement
CC(=O)NCCCS(=O)(=O)O [acamprosate, Acamprosate] | 1.5 to 2 | no significant improvement
